Assay results as given in patent publication US20230323463A1, “COMPOSITIONS AND METHODS FOR DETECTING BCL2L14 AND ETV6 GENE FUSIONS FOR DETERMINING INCREASED DRUG RESISTANCE” (UNIVERSITY OF PITTSBURGH-OF THE COMMONWEALTH SYSTEM OF …, priority 2020, published 2023).
Entries after “also recorded” stand apart in the source; their conditions may differ.

Columns and labels:
Type in all cases: cell-based, human
[1] = tested on: engineered stable BT20 cells; assay: Paclitaxel dose curve, cell proliferation by MTS assay; conditions: BT20 cells expressing BCL2L14-ETV6 fusions vs vector or wtETV6; short-term (72 h) treatment, various doses
Protocol: (§1) Cell proliferation and clonogenic assays. Engineered stable BT20 cells were seeded at a density of 3,000 cells/well in a 96-well plate. Cell proliferation was measured by MTS assay at different time points using CellTiter 96 AQueous One Solution Cell Proliferation Assay (Promega). For paclitaxel dose curve, stable BT20 cells were seeded at a density of 5000 cells/well in a 96-well plate and treated with vehicle or different doses of paclitaxel. Cell proliferation was measured by MTS assay after 72 hours of treatment. For clonogenic assay, stable BT20 or MCF10A cells were seeded at a density of 10,000 cells/well in a 24-well plate. After attachment to the plate, cells were treated with 0.1% DMSO (vehicle) or paclitaxel at 5 nM for BT20 cells for 6 days or 15 nM for MCF10A cells for 5 days before replacement of the chemical with fresh growth medium. The remaining colonies were growing in the plate for one month and then stained with 0.5% crystal violet in 50% ethanol and counted using ChemiDoc photography (Bio-Rad) and ImageJ.

[2] = tested on: engineered stable BT20 cells; assay: Clonogenic assay after prolonged paclitaxel treatment, BT20; conditions: 5 nM paclitaxel, one month
Protocol: as §1

[3] = tested on: engineered stable MCF10A cells; assay: Clonogenic assay after prolonged paclitaxel treatment, MCF10A; conditions: MCF10A cells expressing BCL2L14-ETV6 fusions vs vector or wtETV6; 15 nM paclitaxel, one month
Protocol: as §1

[4] = tested on: engineered BT20 cells; assay: Apoptotic biomarkers by immunoblotting after paclitaxel treatment; conditions: BT20 cells overexpressing BCL2L14-ETV6 fusions vs wtETV6-expressing cells; 48 hours
Protocol: Western blot. For immunoblot analysis, total proteins were extracted by homogenizing the cells in NP40 Lysis Buffer supplemented with complete protease inhibitor cocktail tablet (Roche), 1 mM DTT, and 1 mM PMSF. 20~50 micrograms of protein extracts were denatured in sample buffer, separated by SDS-PAGE, and transferred onto a PVDF membrane (GE). The membranes were blocked and then incubated for 1 h at room temperature or overnight at 4° C. with primary antibodies, followed by incubation with respective horseradish peroxidaseconjugated secondary antibody. The signals were then visualized by the enhanced chemiluminescence system (Clarity Western ECL Substrate and ChemiDoc imaging system, Bio-Rad).

With `CC(=O)O[C@H]1C(=O)[C@@]2(C)[C@H]([C@H](OC(=O)c3ccccc3)[C@]3(O)C[C@H](OC(=O)[C@H](O)[C@@H](NC(=O)c4ccccc4)c4ccccc4)C(C)=C1C3(C)C)[C@]1(OC(C)=O)CO[C@@H]1C[C@@H]2O` [paclitaxel] the “sensitivity to paclitaxel (cell viability)” value [1] was “modest reduced sensitivity; also recorded: increased resistance”, the “clonal resistance to paclitaxel” value ([2]; BT20 cells expressing BCL2L14-ETV6 fusions (E2E3, E4E3, E4E2)) was “evident clonal resistance; also recorded: clonal resistance in BT20 cells” and the “clonal survival after paclitaxel” value ([2]; BT20 cells expressing wtETV6 or vector control) was “almost eradicated”. For the same compound, the “clonal resistance to paclitaxel” value [3] was “increased clonal resistance; also recorded: clonal resistance in MCF10A cells” and the “apoptosis biomarkers following paclitaxel treatment” value [4] was “did not show evident reduced apoptosis”.
